Square brackets hold non-standard residues; d marks the D form. Peptide text beside a SMILES is read from it. * marks the point of attachment. Morpholide = C1CN(*)CCO1; PhAc = O=C(Cc1ccccc1)*
Columns and labels:
[1] = test system: delayed-type hypersensitivity murine model; test: Adoptive transfer delayed type hypersensitivity in mice (oxazolone); format: in vivo, mouse; details: for Percent Inhibition of post-challenge swelling: expanded study, versus vehicle alone, 6 mg/kg/day s.c. pump, 24 hours
Experimental: An adoptive transfer delayed-type hypersensitivity murine model has been developed using splenic T cells primed to oxazolone. This model is described in Elices et al., Clin. Exp. Rheum., 11 (Suppl. 8):577-580 (1993), whose procedures were followed here.
Thus, BALB/c mice were shaved on the belly and painted (50 μl on the belly and 5 μl on each paw) with three percent oxazolone in acetone/olive oil (4:1) at days zero and 1. At day 5, the mice were sacrificed, their spleens removed, and splenic T cells were obtained via nylon wool columns.
Normal saline or saline containing 25×10^6 /animal of the oxazolone-immune T cells were separately injected into naive mice. The mice were then challenged by painting 10 μl of 2 percent oxazolone onto one ear each. All procedures were carried out under sterile conditions and in endotoxin-free buffers.
Prior to challenge or saline injection, the mice were implanted with pumps that subcutaneously administered normal saline, normal saline containing the compound, Compound ID No. 896.52, N-phenylacetyl-Leu-Asp-Phe-D-Pro-NH2, or normal saline containing a compound with a scrambled sequence continually at 6 mg/kg/day for a 24-hour time period. The swelling diameter at the site of challenge or saline injection was measured with a microcaliper 24 hours thereafter.
An expanded study was carried out as described above except that a scrambled compound control was not used as a control for further inhibitor compounds of Table 1 with larger groups of mice. Statistical analyses were carried out versus injection of vehicle alone.

EAE in SJL/J mice = test: Experimental autoimmune encephalomyelitis in mice; format: in vivo; details: 1 mg/mouse i.p. at days 8 and 9; versus scrambled control compound
Experimental: EAE was induced in female SJL/J mice (8 to 14 weeks old) by immunization on day zero with 50 μg of a compound corresponding to positions 139-151 of PLP emulsified in a 1:1 mixture of PBS and complete Freund's adjuvant (CFA). Each mouse was injected with 0.2 ml of the adjuvant emulsion subcutaneously (s.c.) at two sites in the hind flank. All mice received 10^7 killed Bordetella pertussis units in 100 μl were injected intravenously 24 to 72 hours later.
Mice were observed daily, beginning at day 8 for clinical signs of EAE, and disease was scored on a scale of 0-5 as: 0=no disease; 1=floppy tail; 2=moderate hind limb weakness; 3=paraparesis; 4 =paraplegis with moderate forelimb weakness; 5 =qualdriplegis or premoribund state.
The inhibitor compound, Compound ID No. 896.52, N-phenylacetyl-Leu-Asp-Phe-D-Pro-NH2 was administered intraperitoneally at 1 mg/mouse in 0.2 ml of incomplete Freund's adjuvant at days 8 and 9. A compound having a scrambled sequence [N-phenylacetyl-Asp-Leu-Phe-D-Pro-NH2 ] was similarly administered to serve as a control.
Summed or averaged scores for clinical signs were plotted vs. time. The area under the resulting curves was calculated between day 8 and day 35 to calculate percentage inhibition of EAE by an inhibitor compound. The percent inhibition was calculated as follows:
%Inhibition=100-(Area of inhibitor compound+control area)×100

asthmatic sheep = test: Treatment of asthmatic sheep (Ascaris suum antigen); format: in vivo
Experimental: Six asthmatic sheep were treated in a double blind cross-over study. […] This study was carried out generally as described in Abraham et al., J. Clin. Invest., 93:776-787 (1994).
The inhibitor compound used here was Compound ID No. 896.52, N-phenylacetyl-Leu-Asp-Phe-D-Pro-NH2, with a control compound that comprised the previously described compound having the same residues in a scrambled sequence. The vehicle for the nebulized compounds was phosphate-buffered saline. The compounds were administered at a dose of 1 mg/kg each, twice a day for three days prior to challenge, as well as 0.5 hours prior to and four hours post challenge on day 4. Because this was a crossover study, each animal received one or the other treatment, followed by a rest and then the other treatment. Each animal therefore served as its own control.
Post challenge airway responsiveness was also assayed. Here, specific lung resistance, SRL, returned to baseline values 24 hours after challenge, however, the sheep were hyperresponsive to inhaled carbachol at that time.

asthmatic rabbits = test: Treatment of asthmatic rabbits (house dust mite antigen challenge); format: in vivo, rabbit
Experimental: Six New Zealand white rabbits were immunized with house dust mite antigen from birth through four months of age. Upon immunization, three rabbits received a single nebulizer administration of the inhibitor compound, Compound ID No. 1051.01, N-phenylacetyl-Leu-Asp-Phe-morpholinamide in aqueous 50 percent ethanol as diluent in an amount of 100 mg/kg, and the other three received diluent alone. All of the rabbits were challenged with house dust mite antigen about 15-30 minutes after administration of the compound, with those animals not receiving compound serving as controls.
Once immunized and challenged, the inflammatory state subsides to a basal level within about three weeks. The three animals used as controls were thereafter used as subjects for receipt of an inhibitor compound, and the three rabbits that initially received the compound can serve as controls.
Such a crossover study was done here. Thus, the three initial control rabbits were treated with the above inhibitor compound in the above diluent at a time more than three weeks after the above study, and the three previous recipients of the compound were administered the diluent alone. All six were than challenged again.
Initial pulmonary function, measured by dynamic compliance (Cdyn) and lung resistance (RL) , and bronchoalveolar lavage (BAL) to obtain an effector cell count, here eosinophils, were conducted prior to administration of the compound or diluent for both portions of this crossover study. Similar assays were then taken one-half hourly after challenge for six hours (early phase allergic reaction) and at 24 hours after challenge (late stage allergic reaction) for both portions of this study.
These studies were conducted as described by W. J. Metzger in CRC Handbook of Late Phase Reactions, W. Dorsch, ed., Chapter 35, CRC Press, Boca Raton, Fla. (1990) pages 347-362.
The results of this study for the pulmonary function parameters are shown in FIG. 4A and FIG. 4B, in which data for the challenged, inhibitor compound-treated animals are shown as open circles and data for the challenged, untreated, control animals are shown in blackened circles.

VLA-4 [2] = biological target: T1, VLA-4 (Homo sapiens, UniProt P05556+P13612); test: In vitro binding inhibition of 51Cr-labeled Jurkat cells to solid phase-bound CS-1 compound (SEQ ID NO:1); format: cell-based; design: inflammatory cells that contain the VLA-4 receptor [Jurkat cells; host or cells: Jurkat (human T lymphoblastic line); details: binding inhibition potency relative to standard compound of SEQ ID NO:3 = 1 (normalized IC50); about one-tenth or less assigned zero
In short: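 51Cr-labeled human Jurkat cells were preincubated with compound 30 min at about 22° C, then allowed to bind to wells coated with CS-1 peptide or CS-1-OVA for 30 min at 37° C. After washing, bound cells were lysed with SDS and counted. IC50 is the concentration halving binding, normalized to SEQ ID NO: 3.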

Jurkat cells = test: Binding of Jurkat cells to frozen human RA synovial sections; format: cell-based; details: 500 μg/ml
Experimental: Binding studies were carried out using the Jurkat T cell line and frozen RA synovial sections. […] Stimulated MOLT-4 cells behaved similarly.
The absolute value of that IC50 value is about 0.5 μmolar.

immune T cells = details: about 50 μg/ml admixed with immune T cells; cited from earlier work
VLA-4 [3] = biological target: T1, VLA-4; details: cited from earlier work
[4] = 100 mg/kg nebulizer, late (24 hours)

T1 sequence (P13612 34-1032): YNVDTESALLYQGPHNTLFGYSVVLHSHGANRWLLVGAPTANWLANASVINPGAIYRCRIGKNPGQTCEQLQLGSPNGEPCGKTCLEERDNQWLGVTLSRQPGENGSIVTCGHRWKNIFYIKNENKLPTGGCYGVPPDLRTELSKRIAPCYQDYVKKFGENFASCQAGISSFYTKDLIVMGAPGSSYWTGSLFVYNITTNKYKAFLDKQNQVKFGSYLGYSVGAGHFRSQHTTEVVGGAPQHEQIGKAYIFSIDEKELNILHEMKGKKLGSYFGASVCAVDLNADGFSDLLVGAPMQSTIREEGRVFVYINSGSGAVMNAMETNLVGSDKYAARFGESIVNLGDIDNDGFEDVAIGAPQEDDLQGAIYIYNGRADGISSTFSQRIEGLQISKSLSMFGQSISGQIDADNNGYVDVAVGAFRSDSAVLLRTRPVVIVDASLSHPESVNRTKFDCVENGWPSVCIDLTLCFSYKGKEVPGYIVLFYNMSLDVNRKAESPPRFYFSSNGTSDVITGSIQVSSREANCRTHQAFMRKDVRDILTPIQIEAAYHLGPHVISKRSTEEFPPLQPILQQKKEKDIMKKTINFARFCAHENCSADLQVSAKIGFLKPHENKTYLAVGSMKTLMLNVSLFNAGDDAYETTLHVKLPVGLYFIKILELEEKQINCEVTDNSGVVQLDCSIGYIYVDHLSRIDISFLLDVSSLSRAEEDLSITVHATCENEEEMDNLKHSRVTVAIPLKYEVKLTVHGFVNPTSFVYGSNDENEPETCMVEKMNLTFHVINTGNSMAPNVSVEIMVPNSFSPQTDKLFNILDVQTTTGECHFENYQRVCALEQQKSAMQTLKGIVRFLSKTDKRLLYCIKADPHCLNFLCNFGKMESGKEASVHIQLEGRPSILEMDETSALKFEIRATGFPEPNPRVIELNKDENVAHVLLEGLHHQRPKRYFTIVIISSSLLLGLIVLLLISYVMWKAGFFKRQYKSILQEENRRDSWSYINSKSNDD
T1 sequence (P05556 21-798): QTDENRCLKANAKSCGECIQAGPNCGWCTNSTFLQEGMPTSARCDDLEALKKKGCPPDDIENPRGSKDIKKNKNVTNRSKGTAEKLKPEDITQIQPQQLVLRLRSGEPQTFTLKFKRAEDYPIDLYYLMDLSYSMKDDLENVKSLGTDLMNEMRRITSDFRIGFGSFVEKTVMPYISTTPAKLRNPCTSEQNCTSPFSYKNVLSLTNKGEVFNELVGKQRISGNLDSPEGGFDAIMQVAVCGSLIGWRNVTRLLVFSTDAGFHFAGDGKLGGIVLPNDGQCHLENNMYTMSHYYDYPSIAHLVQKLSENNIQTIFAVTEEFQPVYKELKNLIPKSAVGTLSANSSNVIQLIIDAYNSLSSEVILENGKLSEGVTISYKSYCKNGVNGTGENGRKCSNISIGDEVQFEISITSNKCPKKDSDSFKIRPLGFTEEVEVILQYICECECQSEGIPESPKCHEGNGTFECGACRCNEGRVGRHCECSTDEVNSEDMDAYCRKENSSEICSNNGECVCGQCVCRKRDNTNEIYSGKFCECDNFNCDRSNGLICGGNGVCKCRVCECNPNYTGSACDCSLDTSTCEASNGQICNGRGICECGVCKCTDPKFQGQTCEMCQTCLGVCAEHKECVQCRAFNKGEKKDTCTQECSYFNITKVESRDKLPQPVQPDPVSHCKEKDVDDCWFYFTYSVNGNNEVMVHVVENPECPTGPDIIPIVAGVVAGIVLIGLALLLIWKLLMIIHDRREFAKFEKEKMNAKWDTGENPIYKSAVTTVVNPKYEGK

## CC(C)C[C@H](NC(=O)Cc1ccccc1)C(=O)N[C@@H](CC(=O)O)C(=O)N[C@@H](Cc1ccccc1)C(=O)N1CCC[C@@H]1C(N)=O [896.52] (PhAc-LDF[dP]-NH2)
[1]; 6 mg/kg/day s.c. by implanted pump for 24 hours, versus saline
  swelling at challenge site (initial study, FIG. 5): reduced this type of CS-1/VLA-4-mediated immunoinflammation
[1]
  Percent Inhibition of post-challenge swelling: 36%
EAE in SJL/J mice
  clinical signs of EAE (FIG. 6): marked improvement in clinical signs
Asthmatic sheep; 24 hours after challenge, pre-challenge about 20-23 BU
  PC400, carbachol dosage to increase SRL 4-fold: about 27 BU
Asthmatic sheep; nebulized 1 mg/kg twice a day, versus control compound
  specific lung resistance SRL after challenge (FIG. 7): less of a change from baseline specific lung resistance (SRL)

## CC(C)C[C@H](NC(=O)Cc1ccccc1)C(=O)N[C@@H](CC(=O)O)C(=O)N[C@@H](Cc1ccccc1)C(=O)N1CCOCC1 [1051.01] (PhAc-Leu-Asp-Phe-Morpholide)
Asthmatic rabbits; 100 mg/kg nebulizer, early (2-4 hours)
  % Reduction, RL, Early phase: 80.1%
Asthmatic rabbits; 100 mg/kg nebulizer, early (2-4 hours), versus challenged controls
  % Reduction, Cdyn, Early phase: 94.4%
Asthmatic rabbits; [4]
  % Reduction, Cdyn, Late phase: 86.6%
  % Reduction, RL, Late phase: 82.6%
Asthmatic rabbits; after 24 hours, versus untreated, challenged animals
  reduction in eosinophils (BAL count): 88.1%
Asthmatic rabbits; six hours after challenge
  dynamic compliance Cdyn over six hours (FIG. 4A): stayed at about the initial value
  lung resistance RL over six hours (FIG. 4B): remained between the initial value and about 200% of that value
VLA-4 [2]
  Relative Potency: 709

## CC(C)C[C@H](NC(=O)Cc1ccccc1)C(=O)N[C@@H](CC(=O)O)C(=O)N[C@@H](Cc1ccccc1)C(=O)N1CCC(O)CC1 [1070.02]
[1]
  Percent Inhibition of post-challenge swelling: 29%
VLA-4 [2]
  Relative Potency: 604

## CC(C)C[C@H](NC(=O)Cc1ccccc1)C(=O)N[C@@H](CC(=O)O)C(=O)N[C@@H](Cc1ccccc1)C(=O)N1CCN(CC(=O)O)CC1 [1111.06]
[1]
  Percent Inhibition of post-challenge swelling: 30%
VLA-4 [2]
  Relative Potency: 2600

## CC[C@H](C)[C@H](NC(=O)[C@H](CCC(=O)O)NC(=O)[C@@H]1CCCN1C(=O)CN)C(=O)N[C@@H](CC(C)C)C(=O)N[C@@H](CC(=O)O)C(=O)N[C@H](C(=O)N1CCC[C@H]1C(=O)N[C@@H](CO)C(=O)N[C@H](C(=O)O)[C@@H](C)O)C(C)C [Compound ID No. 872.01, GPEILDVPST] (H-GPEILDVPST-OH)
Jurkat cells
  inhibition of Jurkat cell adhesion to RA synovial sections: could be inhibited
Immune T cells
  abrogation of transferred immune response: could abrogate a transferred immune response

## Leu-Asp-Val [LDV]
VLA-4 [3]
  affinity of VLA-4 binding relative to native CS-1 25-mer: at least two orders of magnitude lower affinity

Reference: patent publication US5770573A, “CS-1 peptidomimetics, compositions and methods of using the same” (Cytel Corporation, priority 1995, dated 1998)
